Data reported in patent publication US20170128412A1, “SYSTEM AND METHOD FOR IMPROVED BLOOD CIRCULATION AND MAINTAINING MITOCHONDRIAL ENERGY PRODUCTION” (priority 2015, published 2017).

Assays:
[1] = DPPH radical removal ability; format: biochemical; settings: for IC50: DPPH radical removal
Method: Chart 3 indicates the diphenylpicrylhydrazl (DPPH) radical removal ability of torolox, tocotrienol, α-tocopherol, and coenzyme Q10. The reaction composition was carried out in a DPPH solution comprising 8 mg DPPH per 100 ml of 50% ethanol. The total reaction composition comprised 0.2 ml of the specimen (torolox, tocotrienol, α-tocopherol, or coenzyme Q10) and 1.8 ml of the aforementioned DPPH solution. The total reaction composition reacted at room temperature in a dark place for 30 minutes. The absorbance measurement was carried out at 517 nm.

[2] = Linoleate peroxidative reaction inhibition (AAPH, linoleate micellar solution); format: biochemical; settings: for inhibition rate for linoleate hydroperoxide generation: as stated in the description ("Studies indicate"); for Inhibition rate (%): specimen 25 μM
Method: Chart 4 indicates the linoleate peroxidative reaction inhibition action of tocotrienol, a-tocopherol, and Coenzyme Q10. The linoleate micellar solution comprised 300mM linoleate, 5 mM 2,2′-Azobis(2-amidinopropane) dihydrochloride (AAPH), and a specimen (tocotrienol, α-tocopherol, or Coenzyme Q10) dissolved in 0.3% Lubrol Px—20 mM sodium phosphate buffer (pH 7.4). The reaction composition reacted at room temperature for one hour, and then 0.5 ml of methanol was added to the composition, and then 2.0 ml of 70% methanol was added to the composition. The absorbance measurement was conducted at 234 nm.

IC50 [1] [µM] | Compound | DPPH inhibition, result in words [1] | Inhibition rate (%) ([1]; specimen 25 μM) | Inhibition rate (%) ([1]; specimen 50 μM) | Inhibition rate (%) ([1]; specimen 100 μM) | Linoleate peroxidation inhibition, result in words [2] | inhibition rate for linoleate hydroperoxide generation [2] | Inhibition rate (%) [2] [%]
– | COC1=C(OC)C(=O)C(C/C=C(\C)CC/C=C(\C)CC/C=C(\C)CC/C=C(\C)CC/C=C(\C)CC/C=C(\C)CC/C=C(\C)CC/C=C(\C)CC/C=C(\C)CCC=C(C)C)=C(C)C1=O [Coenzyme Q10, coenzyme Q10] | did not exhibit inhibition action | <0 | <0 | <0 | did not exhibit inhibition action | no such inhibition | –
43.8 | Cc1c(C)c2c(c(C)c1O)CCC(C)(C(=O)O)O2 (centres unmarked) [Torolox, torolox] | – | 19.1 | 48.2 | 94.9 | – | – | –
51.1 | Cc1c(C)c2c(c(C)c1O)CC[C@@](C)(CCC[C@H](C)CCC[C@H](C)CCCC(C)C)O2 [α-Tocopherol, α-tocopherol] | – | 15.2 | 41 | 87.6 | – | – | 42.2
55 | tocotrienol | approximately the same level as a-tocopherol | 16.3 | 41 | 79.8 | inhibition at the same level as a-tocopherol | about 40% | 42.2
